Values of other authors as cited in US20080248140A1, “COMPOSITION FOR SUPPORTING RESTFUL SLEEP” (priority 2007, published 2008).

Experiments:
[1] = normal subjects (Mayer et al. 1996)
GABA(A) receptor = conditions: activity produced by muscimol; Yuan et al. 2004

Row | Compound | quality of sleep and post-sleep restfulness [1] | neural activity in the brainstem (GABA(A) receptor)
1 | C/C1=C2/[N-][C@H]([C@H](CC(N)=O)[C@@]2(C)CCC(=O)NC[C@@H](C)OP(=O)([O-])O[C@H]2[C@@H](O)[C@@H](n3cnc4cc(C)c(C)cc43)O[C@@H]2CO)[C@]2(C)N=C(/C(C)=C3N=C(/C=C4N=C1[C@@H](CCC(N)=O)C\4(C)C)[C@@H](CCC(N)=O)[C@]\3(C)CC(N)=O)[C@@H](CCC(N)=O)[C@]2(C)CC(N)=O.[CH3-].[Co+3] [Methylcobalamin] | increases in the quality of sleep and feelings of post-sleep restfulness | –
2 | CC1=C2[C@H](/C=C(\C)C(=O)O)CC[C@@H](C)[C@H]2CC1 [Valerinic acid] | – | decrease neural activity in the brainstem
